Laboratory results: US6492563B2, “Fragrance precursors” (Givaudan SA, priority 2000, dated 2002)

Legend:
Type in all cases: physicochemical
[1] = Stability tests in aqueous buffer solutions; conditions: for Stability at pH 2.5: aqueous buffer pH 2.5, 24 h at 37° C.; for Stability at pH 7: aqueous buffer pH 7, 24 h at 37° C.; for Stability at pH 9.5: aqueous buffer pH 9.5, 24 h at 37° C.
[2] = Photolysis of phenacyl acetals (I) in solution, mercury lamp, GC-FID; parameters: key: 0: no cleavage; +: slow cleavage; ++: medium cleavage; +++: fast cleavage; conditions: solution (ethanol), mercury lamp 150 W, Pyrex, one hour irradiation
Protocol: Photorelease assays were conducted on solutions (typical concentrations of precursors (I): 0.05% to 0.1% g/v) in organic solvents (preferably ethanol) or on cotton towels after deposition of the phenacyl acetals (I), as described below in the example 3.
The solutions were irradiated with a mercury lamp (150 W) in a borosilicate glass apparatus (Pyrex®) so as to limit the irradiation window to mainly the UVA and UVB spectrum of sun light. The alcoholic solution was irradiated for one hour and samples taken every 15 minutes to analyze the extent of the photolysis.
The presence of the aryl ketone (II) and ester (III) after photolysis in solutions was determined by using GC retention times. Samples (0.2 μl) were injected (on column injection) without further dilution. Gas chromatography-flame ionization detection (GC-FID) was carried out with a Fisons-GC 8000 series apparatus, using a J&W Scientific DB-5 capillary column (30 m, 0.32 mm id, 0.25 μm film, He carrier gas, 85 kPa).
Whereas precursors derived from Oranger Crystals® cleaved fairly slowly (FIG. 1), those derived from acetanisole cleaved fast and Fixolide® precursors even faster. The rates are calculated from the GC analysis (corresponding peak area).

[3] = Hand washing tests: partition between water and fabric (substantivity), HPLC; conditions: for Amounts recovered: Water: extract of aqueous washing liquor after hand washing; for Amounts recovered: Water, % (±10%): extract of aqueous washing liquor; for Amounts recovered: Water, % (±10%) / Amounts recovered: Towel extract, % (±10%): of amount incorporated; for Amounts recovered: Towel extract: extract of dried towels after hand washing; for Amounts recovered: Towel extract, % (±10%): extract of dried towels
Protocol: (§1) Washing tests were performed according to the following hand washing test cedure with OMO Progress® base which contains the following ingredients:
(§2) 1- The washing powder (2.1 g) containing the phenacyl acetal (I, about 21 mg, 1%) was dissolved in water (500 ml) at room temperature.
2- The towels (35 g) were added to the liquor and mixed with a glass stick.
3- Towels were soaked for 45 minutes with stirring every 15 minutes.
4- The wringed towels were rinsed three times with fresh water (250 ml) with intermediate wringing.
5- Towels were allowed to dry in a dark and odorless place before analysis or evaluation.
The towels were extracted with an organic solvent (preferably t-butyl methyl ether) using a Dionex ASE200 Accelerated Solvent Extractor and the extracts were analyzed by HPLC (Hewlett Packard Series 1100, column: Zorbax Eclipse XDB-C18, dimensions 15 cm×4.6 mm×5 μm).
The washing liquor was extracted with an organic solvent (preferably t-butyl methyl ether, 250 ml) and analyzed by HPLC as above.
The aqueous liquors were extracted with an organic solvent (preferably t-butyl methyl ether) and analytical HPLC gave the results in table 5, which are related to partition between water and fabric.

[4] = Stability in washing liquor (washing conditions, OMO Progress base), HPLC; conditions: for Stability at pH 11: pH 11, washing conditions as in example 5; for Amount ecovered / Recovered: washing liquor stirred one hour at room temperature; for Amount ecovered: extraction, HPLC; for Recovered: relative to amount incorporated
Protocol: as §1, §2
The washing liquor (2.1 g washing powder containing 1% phenacyl acetal (I) in 500 ml water), according to 1 in the above described washing procedure, was stirred during one hour at room temperature. Extraction with an organic solvent (preferably t-butyl methyl ether) to recover organic compounds and analysis with HPLC gave the amounts of recovered phenacyl acetal (I), table 4.

Row | SMILES | Stability at pH 2.5 [1] | Stability at pH 7 [1] | Stability at pH 9.5 [1] | UV-test (release of aryl ketone (II) and ester (III), cleavage) [2] | Amounts recovered: Water [3] [mg] | Amounts recovered: Water, % (±10%) [3] [%] | Amounts recovered: Towel extract [3] [mg] | Amounts recovered: Towel extract, % (±10%) [3] [%] | Stability at pH 11 [4] | Amount ecovered [4] [mg] | Recovered [4] [%]
1 | COc1ccc(C(=O)COC(C)OCCc2ccccc2)cc1 (centres unmarked) [compound 2, 1-(4-Methoxy-phenyl)-2-(1-phenethyloxy-ethoxy)-ethanone] | unstable | stable | stable | ++ | 15 | 63 | 10.5 | 44 | stable | 18.5 | 83
2 | CCCCCCOC(C)OCC(=O)c1ccc(OC)cc1 (centres unmarked) [compound 5, 2-(1-Hexyloxy-ethoxy)-1-(4-methoxy-phenyl)-ethanone] | unstable | stable | stable | ++ | 18.4 | 73 | 11.7 | 46 | stable | 25.7 | 100
3 | COc1ccc(C(=O)COC(C)OCCCc2ccccc2)cc1 (centres unmarked) [compound 6, 1-(4-Methoxy-phenyl)-2-[1-(3-phenyl-propoxy)-ethoxy]-ethanone] | unstable | stable | stable | ++ | 14.5 | 65 | 17 | 47 | stable | 20.8 | 94
4 | COc1ccc(C(=O)COC(C)OCCC(C)CCC=C(C)C)cc1 (centres unmarked) [compound 7, 2-[1-(3,7-Dimethyl-oct-6-enyloxy)-ethoxy]-1-(4-methoxy-phenyl)-ethanone] | – | – | – | ++ | – | – | – | – | – | – | –
5 | CCCCCCOC(C)OCC(=O)c1cc2c(cc1C)C(C)(C)C(C)CC2(C)C (centres unmarked) [compound 8, 1-(3,5,5,6,8,8-Hexamethyl-5,6,7,8-tetrahydro-naphthalen-2-yl)-2-(1-hexyloxy-ethoxy)-ethanone] | stable | stable | stable | +++ | 16.3 | 69 | 8.7 | 42 | stable | 22.2 | 99
6 | CC/C=C\CCOC(C)OCC(=O)c1cc2c(cc1C)C(C)(C)C(C)CC2(C)C (centres unmarked) [compound 9, 1-(3,5,5,6,8,8-Hexamethyl-5,6,7,8-tetrahydro-naphthalen-2-yl)-2-(1-hex-3(Z)-enyloxy-ethoxy)-ethanone] | stable | stable | stable | +++ | 15.3 | 67 | 10.3 | 45 | stable | 20.0 | 96
7 | CCOC(C)OCC(=O)c1cc2c(cc1C)C(C)(C)C(C)CC2(C)C (centres unmarked) [compound 10, 2-(1-Ethoxy-ethoxy)-1-(3,5,5,6,8,8-hexamethyl-5,6,7,8-tetrahydro-naphthalen-2-yl)-ethanone] | – | – | – | +++ | – | – | – | – | – | – | –
8 | CC(C)=CCCC(C)CCOC(C)OCC(=O)c1ccc2ccccc2c1 (centres unmarked) [compound 12, 2-[1-(3,7-Dimethyl-oct-6-enyloxy)-ethoxy-]1-naphthalen-2-yl-ethanone] | – | – | – | + | – | – | – | – | – | – | –

Continued, values first:

Row | Stability at pH 2.5 [1] | Stability at pH 7 [1] | Stability at pH 9.5 [1] | UV-test (release of aryl ketone (II) and ester (III), cleavage) [2] | Amounts recovered: Water [3] [mg] | Amounts recovered: Water, % (±10%) [3] [%] | Amounts recovered: Towel extract [3] [mg] | Amounts recovered: Towel extract, % (±10%) [3] [%] | Stability at pH 11 [4] | Amount ecovered [4] [mg] | Recovered [4] [%] | SMILES
9 | unstable | stable | stable | ++ | – | – | – | – | – | – | – | CCOC(C)OCC(=O)c1ccc(OC)cc1 (centres unmarked) [compound 1, 2-(1-Ethoxy-ethoxy)-1-(4-methoxy-phenyl)-ethanone]
10 | unstable | stable | stable | ++ | 13.3 | 59 | 14 | 62 | stable | 22.3 | 100 | CC/C=C\CCOC(C)OCC(=O)c1ccc(OC)cc1 (centres unmarked) [compound 3, 2-(1-Hex-3(Z)-enyloxy-ethoxy)-1-(4-methoxy-phenyl)-ethanone]
11 | unstable | stable | stable | ++ | 17.5 | 75 | 8.9 | 38 | stable | 23.5 | 100 | COc1ccc(C(=O)COC(C)OCCC(C)CC(C)(C)C)cc1 (centres unmarked) [compound 4, 1-(4-Methoxy-phenyl)-2-[1-(3,5,5-trimethyl-hexyloxy)-ethoxyl]-ethanone]
12 | – | – | – | + | – | – | – | – | – | – | – | CCCCCCOC(C)OCC(=O)c1ccc2ccccc2c1 (centres unmarked) [compound 11, 2-(1-Hexyloxy-ethoxy)-1-naphthalen-2-yl-ethanone]
13 | – | – | – | ++ | – | – | – | – | – | – | – | COc1ccc(C(=O)COC(Cc2ccccc2)OC)cc1 (centres unmarked) [compound 15, 1-(4-Methoxy-phenyl)-2-(1-methoxy-2-phenyl-ethoxy)-ethanone]
